Reference: PubChem BioAssay AID248 (DTP/NCI, 2004)
Toxic doses and inconclusive results are not listed.

Test system: L1210 leukemia ip in BDF1 mice, survival T/C
Test: NCI In Vivo Anticancer Drug Screen. Data for tumor model L1210 Leukemia (intraperitoneal) in B6D2F1 (BDF1) mice
Conditions: endpoint: mean survival time, higher = longer survival
Summary of the method: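 Survival endpoint. Drug-treated group vs vehicle group, expressed as T divided by C. Tumor passaged by transplantation.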

[1] = dose: 100.0 mg/kg/injection, schedule: Q01DX001 (ip), vehicle: saline
[2] = dose: 200.0 mg/kg/injection, schedule: Q01DX001 (ip), vehicle: saline
[3] = dose: 400.0 mg/kg/injection, schedule: Q01DX001 (ip), vehicle: saline
[4] = dose: 100.0 mg/kg/injection, schedule: Q04DX003 (ip), vehicle: Klucel (hydroxypropylcellulose) (HPC)
[5] = dose: 200.0 mg/kg/injection, schedule: Q04DX003 (ip), vehicle: Klucel (hydroxypropylcellulose) (HPC)
[6] = dose: 400.0 mg/kg/injection, schedule: Q04DX003 (ip), vehicle: Klucel (hydroxypropylcellulose) (HPC)
[7] = dose: 50.0 mg/kg/injection, schedule: Q01DX009 (ip), vehicle: Klucel (hydroxypropylcellulose) (HPC)
[8] = dose: 100.0 mg/kg/injection, schedule: Q01DX009 (ip), vehicle: Klucel (hydroxypropylcellulose) (HPC)
[9] = dose: 200.0 mg/kg/injection, schedule: Q01DX009 (ip), vehicle: Klucel (hydroxypropylcellulose) (HPC)
[10] = dose: 100.0 mg/kg/injection, schedule: Q01DX009 (ip), vehicle: saline
[11] = dose: 200.0 mg/kg/injection, schedule: Q01DX009 (ip), vehicle: saline
[12] = dose: 400.0 mg/kg/injection, schedule: Q01DX009 (ip), vehicle: saline
[13] = dose: 100.0 mg/kg/injection, schedule: Q01DX001 (ip), vehicle: other
[14] = dose: 200.0 mg/kg/injection, schedule: Q01DX001 (ip), vehicle: other
[15] = dose: 100.0 mg/kg/injection, schedule: Q01DX009 (ip), vehicle: saline with Tween-80
[16] = dose: 200.0 mg/kg/injection, schedule: Q01DX009 (ip), vehicle: saline with Tween-80
[17] = dose: 400.0 mg/kg/injection, schedule: Q01DX009 (ip), vehicle: saline with Tween-80
[18] = dose: 100.0 mg/kg/injection, schedule: Q04DX003 (ip), vehicle: saline
[19] = dose: 50.0 mg/kg/injection, schedule: Q01DX001 (ip), vehicle: saline
[20] = dose: 200.0 mg/kg/injection, schedule: Q04DX003 (ip), vehicle: saline
[21] = dose: 400.0 mg/kg/injection, schedule: Q04DX003 (ip), vehicle: saline

SMILES: Nc1ccccc1NC(=O)C(F)(F)F
- T/C (dose: 50.0 mg/kg/injection, schedule: Q01DX001 (ip), vehicle: carboxymethylcellulose (CMC)): 93 % of control
- T/C (dose: 100.0 mg/kg/injection, schedule: Q01DX001 (ip), vehicle: carboxymethylcellulose (CMC)): 97 % of control
- T/C (dose: 200.0 mg/kg/injection, schedule: Q01DX001 (ip), vehicle: carboxymethylcellulose (CMC)): 98 % of control
- T/C (dose: 400.0 mg/kg/injection, schedule: Q01DX001 (ip), vehicle: carboxymethylcellulose (CMC)): 108 % of control

SMILES: COCC(O)C(OC)C(OC)C(N)C=O (configuration not stated)
- T/C [1]: 101 % of control
- T/C [2]: 101 % of control
- T/C [3]: 107 % of control

SMILES: O=C(Nc1ccc(F)c(Cl)c1)Oc1cc(=O)oc2ccccc12
- T/C [4]: 92 % of control
- T/C [5]: 101 % of control
- T/C [6]: 105 % of control

SMILES: O=C(Nc1ccc(Cl)cc1)c1ccccc1
- T/C [7]: 105 % of control
- T/C [8]: 100 % of control
- T/C [4]: 100 % of control
- T/C [9]: 93 % of control
- T/C [5]: 101 % of control
- T/C [6]: 91 % of control

SMILES: COc1cc(NS(C)(=O)=O)ccc1Nc1c2ccc([N+](=O)[O-])cc2nc2c(C)c(C)ccc12
- T/C (dose: 0.48 mg/kg/injection, schedule: Q01DX009 (ip), vehicle: saline): 113 % of control
- T/C (dose: 2.7 mg/kg/injection, schedule: Q01DX009 (ip), vehicle: saline): 151 % of control
- T/C (dose: 4.1 mg/kg/injection, schedule: Q01DX009 (ip), vehicle: saline): 169 % of control
- T/C (dose: 6.25 mg/kg/injection, schedule: Q01DX009 (ip), vehicle: water): 106 % of control
- T/C (dose: 12.5 mg/kg/injection, schedule: Q01DX009 (ip), vehicle: saline): 157 % of control
- T/C (dose: 12.5 mg/kg/injection, schedule: Q01DX009 (ip), vehicle: water): 116 % of control
- T/C (dose: 22.0 mg/kg/injection, schedule: Q04DX003 (ip), vehicle: saline): 114 % of control
- T/C (dose: 25.0 mg/kg/injection, schedule: Q01DX001 (ip), vehicle: water): 122 % of control
- T/C (dose: 25.0 mg/kg/injection, schedule: Q01DX009 (ip), vehicle: saline): 102 % of control
- T/C (dose: 25.0 mg/kg/injection, schedule: Q01DX009 (ip), vehicle: water): 124 % of control
- T/C (dose: 25.0 mg/kg/injection, schedule: Q01DX009 (sc), vehicle: saline): 106 % of control
- T/C (dose: 35.0 mg/kg/injection, schedule: Q04DX003 (ip), vehicle: saline): 120 % of control
- T/C (dose: 50.0 mg/kg/injection, schedule: Q01DX009 (sc), vehicle: saline): 123 % of control
- T/C (dose: 100.0 mg/kg/injection, schedule: Q01DX009 (sc), vehicle: saline): 115 % of control
- T/C (dose: 200.0 mg/kg/injection, schedule: Q01DX009 (sc), vehicle: saline): 124 % of control
- T/C (dose: 400.0 mg/kg/injection, schedule: Q01DX009 (ip), vehicle: water): 150 % of control

SMILES: c1cnc2[nH]cnc2n1
- T/C [10]: 86 % of control
- T/C [4]: 100 % of control
- T/C [11]: 109 % of control
- T/C [5]: 100 % of control
- T/C [12]: 112 % of control
- T/C [6]: 105 % of control

SMILES: O=C(O)c1ccc(N=Cc2ccccc2O)cc1.[Co]
- T/C [13]: 96 % of control
- T/C [14]: 112 % of control

SMILES: O=C1CC(=Nc2ccc([N+](=O)[O-])cc2)NN1c1c(Cl)cc(Cl)cc1Cl
- T/C [15]: 97 % of control
- T/C [16]: 101 % of control
- T/C [17]: 90 % of control

SMILES: CSc1ccccc1N=Cc1c(N)ccc(C)c1C
- T/C (dose: 100.0 mg/kg/injection, schedule: Q01DX001 (ip), vehicle: saline with Tween-80): 98 % of control
- T/C (dose: 200.0 mg/kg/injection, schedule: Q01DX001 (ip), vehicle: saline with Tween-80): 95 % of control
- T/C (dose: 400.0 mg/kg/injection, schedule: Q01DX001 (ip), vehicle: saline with Tween-80): 98 % of control

SMILES: Cc1cccc2c1CCC(OC(=O)c1cc([N+](=O)[O-])cc([N+](=O)[O-])c1)C2 (configuration not stated)
- T/C [15]: 86 % of control
- T/C [16]: 169 % of control
- T/C [17]: 95 % of control

SMILES: Cc1c(N)ccc2ccccc12
- T/C (dose: 25.0 mg/kg/injection, schedule: Q04DX003 (ip), vehicle: Klucel (hydroxypropylcellulose) (HPC)): 94 % of control
- T/C (dose: 50.0 mg/kg/injection, schedule: Q04DX003 (ip), vehicle: Klucel (hydroxypropylcellulose) (HPC)): 91 % of control
- T/C [13]: 103 % of control
- T/C [4]: 91 % of control
- T/C [14]: 99 % of control
- T/C (dose: 400.0 mg/kg/injection, schedule: Q01DX001 (ip), vehicle: other): 97 % of control

SMILES: NCCCCCCCCCCC(=O)O
- T/C (dose: 100.0 mg/kg/injection, schedule: Q04DX002 (ip), vehicle: Klucel (hydroxypropylcellulose) (HPC)): 115 % of control
- T/C (dose: 200.0 mg/kg/injection, schedule: Q04DX002 (ip), vehicle: Klucel (hydroxypropylcellulose) (HPC)): 95 % of control
- T/C (dose: 400.0 mg/kg/injection, schedule: Q04DX002 (ip), vehicle: Klucel (hydroxypropylcellulose) (HPC)): 101 % of control

SMILES: CCCCCCOC(=O)Nc1ccc(S(=O)(=O)N(C)C)cc1
- T/C [1]: 103 % of control
- T/C [2]: 108 % of control
- T/C [3]: 102 % of control

SMILES: O=C(O)c1c(Br)c(Br)c(Br)c(Br)c1-c1c2ccc(=O)c(O)c-2oc2c(O)c(O)ccc12
- T/C (dose: 12.5 mg/kg/injection, schedule: Q04DX003 (ip), vehicle: saline): 108 % of control
- T/C (dose: 25.0 mg/kg/injection, schedule: Q04DX003 (ip), vehicle: saline): 103 % of control
- T/C (dose: 50.0 mg/kg/injection, schedule: Q04DX003 (ip), vehicle: saline): 105 % of control
- T/C [18]: 102 % of control

SMILES: Nc1ncncc1-c1ccccc1[N+](=O)[O-]
- T/C [7]: 98 % of control
- T/C [8]: 98 % of control
- T/C [9]: 102 % of control

SMILES: Cc1cc(C)c(NC(=O)NCCCl)c(C)c1
- T/C (dose: 50.0 mg/kg/injection, schedule: Q01DX009 (ip), vehicle: saline with Tween-80): 103 % of control
- T/C [15]: 109 % of control
- T/C (dose: 100.0 mg/kg/injection, schedule: Q04DX003 (ip), vehicle: saline with Tween-80): 91 % of control
- T/C [16]: 116 % of control
- T/C (dose: 200.0 mg/kg/injection, schedule: Q04DX003 (ip), vehicle: saline with Tween-80): 93 % of control
- T/C (dose: 400.0 mg/kg/injection, schedule: Q04DX003 (ip), vehicle: saline with Tween-80): 117 % of control

SMILES: OCC(F)(F)F
- T/C [19]: 98 % of control
- T/C [1]: 110 % of control
- T/C [2]: 102 % of control
- T/C [3]: 108 % of control

SMILES: CCOC(=O)c1cccc([N+](=O)[O-])c1I
- T/C [18]: 93 % of control
- T/C [20]: 95 % of control
- T/C [21]: 96 % of control

SMILES: CCN(CC)CCC(CC=C(C)C)(C(N)=O)c1cccc2ccccc12 (configuration not stated)
- T/C (dose: 5.0 mg/kg/injection, schedule: Q04DX003 (ip), vehicle: saline with Tween-80): 98 % of control
- T/C (dose: 10.0 mg/kg/injection, schedule: Q04DX003 (ip), vehicle: saline with Tween-80): 100 % of control
- T/C (dose: 20.0 mg/kg/injection, schedule: Q04DX003 (ip), vehicle: saline with Tween-80): 109 % of control

SMILES: CC(C)(CN)CCBr
- T/C [19]: 95 % of control
- T/C [1]: 88 % of control
- T/C [2]: 101 % of control
- T/C [3]: 92 % of control

SMILES: C=CCSCCC
- T/C [10]: 90 % of control
- T/C [18]: 96 % of control
- T/C [11]: 90 % of control
- T/C [20]: 104 % of control
- T/C [12]: 90 % of control
- T/C [21]: 91 % of control

SMILES: Nc1nc(N)c(-c2ccc(Cl)c(Cl)c2)c(COc2ccc(NC(=O)c3ccc(S(=O)(=O)F)cc3)cc2Cl)n1
- T/C (dose: 50.0 mg/kg/injection, schedule: Q01DX001 (ip), vehicle: Klucel (hydroxypropylcellulose) (HPC)): 97 % of control
- T/C (dose: 100.0 mg/kg/injection, schedule: Q01DX001 (ip), vehicle: Klucel (hydroxypropylcellulose) (HPC)): 97 % of control

SMILES: Cc1ccc(S(=O)(=O)Nc2cccc3cc(Cl)ccc23)cc1
- T/C (dose: 100.0 mg/kg/injection, schedule: Q04DX003 (ip), vehicle: acetone): 94 % of control
- T/C (dose: 200.0 mg/kg/injection, schedule: Q04DX003 (ip), vehicle: acetone): 105 % of control
- T/C (dose: 400.0 mg/kg/injection, schedule: Q04DX003 (ip), vehicle: acetone): 91 % of control

SMILES: CCC#CC(O)(C(=O)OCC)C1CCCC1 (configuration not stated)
- T/C [1]: 105 % of control
- T/C [2]: 105 % of control
- T/C [3]: 111 % of control
